Results from patent US20150299801A1, “Techniques for Treating Acute Lymphoblastic Leukemia (ALL)” (THE TRUSTEES OF COLUMBIA UNIVERSITY IN THE CITY OF NEW YORK, priority 2012, published 2015).
pEC50: −log10 of the molar value.

Assays:
[1] = tested on: CUTLL1 T-ALL cells expressing RFP control or wild type NT5C2; assay: MTT cell viability and chemotherapy drug response, CUTLL1 control cells; assay type: cell-based; conditions: CUTLL1 cells expressing RFP control or NT5C2 WT; read from graph; read-out: log concentration at which viability falls to 50% (converted)
Description: (§1) To formally test the role of NT5C2 mutations in chemotherapy resistance, the effects of wild type and relapse-associated mutant NT5C2 expression were analyzed in the response of CCRF-CEM T-ALL cells to 6-mercaptopurine (6-MP) and 6-thyogunanine (6-TG). Expression of NT5C2 mutations in ALL cells induces resistance to chemotherapy with 6-MP and 6-TG. Viability assays were performed in CCRF-CEM and CUTLL1 T-ALL cells expressing wild type NT5C2, relapse-associated mutant NT5C2 alleles, or a red fluorescent protein (RFP) as control, treated with increased concentrations of the nucleoside analog chemotherapeutic drugs.
CCRF-CEM and CUTLL1 cells were cultured in RPMI-1640 media supplemented with 10% fetal bovine serum, 100U/ml penicillin G and 100 ug/ml streptomycin at 37 C in a humidified atmosphere under 5% CO2. HEK293T were maintained under similar conditions in DMEM media. […]
Cell viability was determined by measurement of the metabolic reduction of the tetrazolium salt MTT using the Cell Proliferation Kit I (Roche, of Indianapolis, Ind.) following the manufacturer instructions. […] Viability was analyzed after 48 or 72 hours of initiation of treatment with 6-mercaptopurine, 6-thioguanine, nelarabine and Ara-G.

[2] = tested on: CCRF-CEM T-ALL cells expressing RFP control or wild type NT5C2; assay: MTT cell viability and chemotherapy drug response, CCRF-CEM control cells; assay type: cell-based; conditions: Homo sapiens; CCRF-CEM cells expressing RFP control or NT5C2 WT; read from graph; read-out: log concentration at which viability falls to 50% (converted)
Description: as §1
(§2) CCRF-CEM and CUTLL1 cells were cultured in RPMI-1640 media supplemented with 10% fetal bovine serum, 100U/ml penicillin G and 100 ug/ml streptomycin at 37 C in a humidified atmosphere under 5% CO2. HEK293T were maintained under similar conditions in DMEM media.
(§3) The lentiviral constructs pLOC-NT5C2, pLOC-NT5C2 359, pLOC-I 367, pLOC-I 407 and the pLOC-RFP control plasmid were transfected with gag-pol and V-SVG expressing vectors into HEK293T cells using JetPEI transfection reagent (Polyplus, of Illkirch, France). Viral supernatants were collected after 48 h and used for infection of CCRF-CEM and CUTLL1 cells by spinoculation. After infection, cells were selected for 5 days in blasticidin and ficolled the day before experiments.
(§4) Cell viability was determined by measurement of the metabolic reduction of the tetrazolium salt MTT using the Cell Proliferation Kit I (Roche, of Indianapolis, Ind.) following the manufacturer instructions. Experiments were done in triplicates. Viability was analyzed after 48 or 72 hours of initiation of treatment with 6-mercaptopurine, 6-thioguanine, nelarabine and Ara-G.

[3] = tested on: CUTLL1 T-ALL cells expressing relapse-associated mutant NT5C2 alleles; assay: MTT cell viability and chemotherapy drug response, CUTLL1 cells expressing mutant NT5C2; assay type: cell-based; conditions: for increase of IC50 for mutations versus control (RFP) or wild type (NT5C2 WT): CUTLL1 cell line, NT5C2 R367Q, D407A
Description: as §1, §2, §3, §4

[4] = tested on: CCRF-CEM T-ALL cells expressing relapse-associated mutant NT5C2 alleles; assay: MTT cell viability and chemotherapy drug response, CCRF-CEM cells expressing mutant NT5C2; assay type: cell-based; conditions: for increase of IC50 for mutations versus control (RFP) or wild type (NT5C2 WT): CCRF-CEM cell line, NT5C2 R367Q, D407A; for resistance to therapy compared with empty vector and wild type NT5C2 controls: cells expressing NT5C2 K359Q, R367Q and D407A, increased drug concentrations; for IC50: Homo sapiens, CCRF-CEM cells expressing mutation (NT5C2 R367Q), read from graph, viability relative to vehicle treated cells, read-out: log concentration at which viability falls to 50% (converted)
Description: as §1, §2, §3, §4

[5] = biological target: T1, NT5C2 Q523X (Homo sapiens, UniProt P49902); assay: 5'-nucleotidase activity as a function of ATP concentration, Q523X; assay type: biochemical
T1 construct: His6 (N); made in house; host or cells: Rosetta 2(DE3) E. coli (described for WT, K359Q, R367Q, D407A)

[6] = tested on: NT5C2 K359Q, R367Q, D407A, L375F, R238W; assay: 5'-nucleotidase activity as a function of ATP concentration, remaining mutations; assay type: biochemical, human
Description: (§5) Biochemical nucleotidase assays measuring release of phosphate upon incubation of NT5C2 with phosphonucleodides were used, including a commercial kit that measures enzymatic activity. (See file DZ123A.php in subfolder reagents of folder products in the World Wide Web at domain diazyme in category corn.)
(§6) Full length cDNA constructs encoding wild type NT5C2, NT5C2 K359Q, NT5C2 R367Q and NT5C2 D407A were cloned with an N-terminal His6 tag in the pET28a-LIC expression vector using the In-Fusion HD PCR cloning system (Clontech, of Mountain View, Calif.), as per manufacturer's instructions. Recombinant proteins were expressed from Rosetta 2(DE3) E. coli cells by induction with 0.5 mM isopropyl-β-D-thiogalactopyranoside for 3 hours at 37° C. […] Protein expression and purity was assessed y SDS-PAGE and Coomassie staining.
(§7) 5′-Nucleotidase activity of purified recombinant wild type and mutant NT5C2 proteins was assessed using the 5′-nucleotidase (5′-NT) Enzymatic Test Kit (Diazyme, of Poway, Calif.), according to the manufacturer's instructions. […] H2O2 is quantified using a Trinder reaction. 5′-Nucleotidase activity levels are calculated using a calibrator of known 5′-NT activity as standard. Assays were performed in triplicate in an Infinite M200 Tecan (of Mannedorf, Switzerland) plate reader.

[7] = biological target: T2, NT5C2 R291W (Homo sapiens, UniProt P49902, R291W); assay: 5'-nucleotidase activity as a function of ATP concentration, R291W; assay type: biochemical
T2 construct: His6 (N); made in house; host or cells: Rosetta 2(DE3) E. coli (described for WT, K359Q, R367Q, D407A)

[8] = biological target: T3, NT5C2 WT (Homo sapiens, UniProt P49902); assay: 5'-nucleotidase activity as a function of ATP concentration, wild type; assay type: biochemical
T3 construct: Full length cDNA constructs encoding wild type NT5C2, NT5C2 K359Q, NT5C2 R367Q and NT5C2 D407A were cloned; His6 (N); made in house; host or cells: Rosetta 2(DE3) E. coli
Description: as §5, §6, §7

[9] = read-out: A0.5, ATP concentration to achieve an activity equal to half Vmax

T2 sequence (P49902 whole entry R291W): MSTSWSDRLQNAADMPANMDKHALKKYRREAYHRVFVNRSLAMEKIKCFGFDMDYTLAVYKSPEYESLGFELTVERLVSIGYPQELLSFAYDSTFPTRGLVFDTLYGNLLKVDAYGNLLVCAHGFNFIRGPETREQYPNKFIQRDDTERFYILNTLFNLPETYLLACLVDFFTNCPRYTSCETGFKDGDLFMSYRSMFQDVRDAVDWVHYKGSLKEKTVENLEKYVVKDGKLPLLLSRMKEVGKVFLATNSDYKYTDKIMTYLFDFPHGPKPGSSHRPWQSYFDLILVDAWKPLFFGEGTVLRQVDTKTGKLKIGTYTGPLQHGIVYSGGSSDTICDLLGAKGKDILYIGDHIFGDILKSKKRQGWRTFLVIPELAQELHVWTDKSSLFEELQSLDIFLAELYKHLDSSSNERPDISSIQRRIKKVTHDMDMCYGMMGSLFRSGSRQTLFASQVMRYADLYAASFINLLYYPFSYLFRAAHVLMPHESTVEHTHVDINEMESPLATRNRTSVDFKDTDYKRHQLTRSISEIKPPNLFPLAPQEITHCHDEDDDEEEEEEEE
T1 sequence (P49902 1-522 limits assumed): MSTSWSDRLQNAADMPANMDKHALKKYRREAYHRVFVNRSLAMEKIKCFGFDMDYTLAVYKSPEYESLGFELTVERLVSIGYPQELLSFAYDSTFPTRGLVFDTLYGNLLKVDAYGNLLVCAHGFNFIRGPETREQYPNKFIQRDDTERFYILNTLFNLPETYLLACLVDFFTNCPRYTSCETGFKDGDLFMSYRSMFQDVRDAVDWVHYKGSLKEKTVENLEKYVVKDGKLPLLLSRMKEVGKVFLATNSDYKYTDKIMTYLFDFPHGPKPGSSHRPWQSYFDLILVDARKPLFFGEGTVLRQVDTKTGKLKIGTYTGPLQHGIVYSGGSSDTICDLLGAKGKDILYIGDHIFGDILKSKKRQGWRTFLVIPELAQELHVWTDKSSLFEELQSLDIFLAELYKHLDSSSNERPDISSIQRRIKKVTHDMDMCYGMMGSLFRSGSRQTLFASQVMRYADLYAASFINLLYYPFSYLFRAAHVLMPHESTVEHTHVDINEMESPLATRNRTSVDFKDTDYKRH

SMILES	IC50 [1] [µM]	IC50 [2] [µM]	increase of IC50 for mutations versus control (RFP) or wild type (NT5C2 WT) [3]	increase of IC50 for mutations versus control (RFP) or wild type (NT5C2 WT) [4]	resistance to therapy compared with empty vector and wild type NT5C2 controls [4]	activity in cells expressing relapse-associated NT5C2 mutations compared to controls [4]	IC50 [4] [µM]	further results
Nc1nc2nc[nH]c2c(=S)[nH]1 [6-TG, 6-thioguanine]	~1	~1	about double	greater than ten times as much	increased resistance	–	–	IC50 ([3]; CUTLL1 cells expressing mutation NT5C2 R367Q, read from graph, read-out: log concentration at which viability falls to 50% (converted)): ~3.16 µM
Nc1nc2c(ncn2[C@@H]2O[C@H](CO)[C@@H](O)[C@@H]2O)c(=O)[nH]1 [AraG]	–	–	–	–	–	equally active	–	–
Nc1ncnc2c1ncn2[C@@H]1O[C@H](COP(=O)(O)OP(=O)(O)OP(=O)(O)O)[C@@H](O)[C@H]1O [ATP]	–	–	–	–	–	–	–	5'-NT activity relative to 0 mM ATP (factor of increase) [5]: over 20; pEC50 [5, 9]: ~2.52; 5'-NT activity relative to 0 mM ATP ([6]; K359Q, R367Q, D407A, L375F, R238W): little change between reference activity and maximum activity; pEC50 ([6]; remaining mutations, read-out: A0.5, ATP concentration to achieve an activity equal to half Vmax): > 3.00; 5'-NT activity relative to 0 mM ATP (factor of increase) [7]: over 20; pEC50 [7, 9]: ~2.40; 5'-NT activity relative to 0 mM ATP (factor of increase) ([8]; ATP concentrations over 20 mM): over 60; pEC50 [8, 9]: 1.71
Sc1ncnc2nc[nH]c12 [6-MP, 6-mercaptopurine]	~6.31	~6.31	greater than ten times as much	about double	increased resistance	–	~10	–
COc1nc(N)nc2c1ncn2[C@@H]1O[C@H](CO)[C@@H](O)[C@@H]1O [nelarabine]	–	~100	–	–	–	equally active	~100	–
